28 molecules from patent publication US8765949B2, “CCR2 receptor antagonists and uses thereof” (Boehringer Ingelheim International GmbH, priority 2009, dated 2014) can be followed below.

The experiment deals with T1, CCR2 (Homo sapiens, UniProt P41597).
T1 construct: Membranes were prepared from THP-1 cells; endogenous in cells; host or cells: THP-1 (human acute monocytic leukaemia cells), membrane preparation
T1 sequence (P41597 1-360 isoform P41597-2): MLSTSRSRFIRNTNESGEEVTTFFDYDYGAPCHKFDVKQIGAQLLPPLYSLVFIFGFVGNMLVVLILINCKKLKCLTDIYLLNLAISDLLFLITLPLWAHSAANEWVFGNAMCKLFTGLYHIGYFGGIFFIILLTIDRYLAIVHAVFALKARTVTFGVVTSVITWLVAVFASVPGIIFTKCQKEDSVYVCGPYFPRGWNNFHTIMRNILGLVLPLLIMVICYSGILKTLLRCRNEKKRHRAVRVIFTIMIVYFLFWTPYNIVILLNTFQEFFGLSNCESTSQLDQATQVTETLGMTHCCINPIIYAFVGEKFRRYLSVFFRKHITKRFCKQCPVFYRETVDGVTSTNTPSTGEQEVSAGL
Briefly: CCR2 receptor membrane binding assay ([125I]MCP-1, THP-1 membranes, SPA beads). The following applies: dissociation constant hKi; THP-1 cell membranes, [125I]MCP-1, bound radioactivity after 8 h. As to the method:
The above exemplary substances have been tested for binding to CCR2 using a binding assay as outlined herein below:
THP-1 cells (human acute monocytic leukaemia cells) were cultured under standardized conditions at 37° C. and 5% CO2 in a humidified incubator. THP-1 cells were cultivated in RPMI 1640 medium (Gibco 21875) containing 1% MEM-NEAA (Gibso 11140) 2 mM L-glutamine, 1.5 g/L sodium bicarbonate, 4.5 g/L glucose, 10 mM HEPES and 1.0 mM sodium pyruvate, 90%; 10% fetal calf serum (FCS Gibco 10500-064).
Membranes were prepared from THP-1 cells. THP-1 cells were centrifuged at 300×g at 4° C. for 10 min. The cell pellet was resuspendet in Phosphate Buffer Saline (PBS, including 10 μM Pefabloc and a protease inhibitor mix ‘complete’, Boehringer Mannheim (1 tablet/50 ml)), to a concentration of […]. The membrane preparation was performed by disrupting the cells by nitrogen […] (at 50 bar, for 1 h) in a “Nitrogen Bombe” (Parr Instrument). Cell debris was removed by centrifugation (800×g at 4° C., 1 min). The supernatant was centrifuged at 80000×g, 4° C. for 30 min to sediment the cell membranes. Usually 50 mg of protein (Bradford assay) were yielded from 1×10E9 cells. The membranes were resuspendet in 25 mM HEPES, 25 mM MgCl2, 1 mM CaCl2, 10% Glycerine for storage in aliquots at −80° C. in 25 mM HEPES, 25 mM MgCl2, 1 mM CaCl2, 10% Glycerine and stored at −80° C.
Receptor Membrane Binding Assay:
Perkin Elmer NEX 332 Jod 125 MCP-1, Stock: 2200 Ci/mmol solved in 2000 μl assay buffer, stored at −20° C. THP-1 membrane were adjusted with 25 mM HEPES, pH 7.2; 5 mM MgCl2; 0.5 mM CaCl2; 0.2% BSA assay buffer to a concentration of 2.5 μg/15 μl. Amersham Biosciences PVT-WGA Beads (RPNQ0001) were adjusted with assay buffer to a concentration of 0.24 mg/30 μl. For preparation of the membrane-bead-suspension membranes and beads were incubated for 30 min at RT under rotation (60 rpm) with a ratio of 1:2. Test compounds dissolved in 100% DMSO to a concentration of 10 mM and are further diluted with 100% DMSO to 1 mM. All additional compound dilutions were obtained with assay buffer, final 1% DMSO. Compounds, membrane-bead-suspension and [125I]MCP-1 (ca. 25000 cpm/10 μl) were incubated. Bound radioactivity was determined by scintillation counter after 8 h. Determination of affinity of test compounds (dissociation constant hKi) is calculated by iterative fitting of experimental data using the “easy sys” program, which is based on law of mass action (Schittkowski K. (1994), Numerische Mathematik, Vol. 68, 129-142).
In the case of `CO[C@@H]1COCC[C@@H]1NC1CCN(C(=O)c2ccnc(NC[C@H]3CCC[C@@H](c4ccccc4)O3)c2C)CC1` [Example 53g], the Ki came out at 16 nM.
Regarding `CO[C@H]1COCC[C@H]1NC1CCN(C(=O)c2cc(NC[C@H]3CCC[C@@H](c4ccc(C)cc4)O3)nc(C(F)(F)F)n2)CC1` [Example 53h], the Ki is 2 nM.
Under `CO[C@@H]1COCC[C@@H]1NC1CCN(C(=O)c2cc(NC[C@H]3CCC[C@@H](c4ccc(C)cc4)O3)nc(C(F)(F)F)n2)CC1` [Example 53i] stands 2 nM; under `CO[C@H]1COCC[C@H]1NC1CCN(C(=O)c2nccc(NC[C@H]3CCC[C@@H](c4ccc(C)cc4)O3)c2C)CC1` [Example 53j], 21 nM.
Then `CO[C@@H]1COCC[C@@H]1NC1CCN(C(=O)c2nccc(NC[C@H]3CCC[C@@H](c4ccc(C)cc4)O3)c2C)CC1` [Example 53k], with 9 nM; and `CO[C@@H]1COCC[C@@H]1NC1CCN(C(=O)c2cc(NC[C@H]3CCC[C@@H](c4ccc(OC(F)(F)F)cc4)O3)nc(C(F)(F)F)n2)CC1` [Example 53l], with 0.5 nM; and `CO[C@H]1COCC[C@H]1NC1CCN(C(=O)c2cc(NC[C@H]3CCC[C@@H](c4ccc(OC(F)(F)F)cc4)O3)nc(C(F)(F)F)n2)CC1` [Example 53m], with 0.3 nM.
Then `COc1nc(NC[C@H]2CCC[C@@H](c3ccc(C)cc3)O2)cc(C(=O)N2CCC(N[C@H]3CCOC[C@H]3OC)CC2)n1` [Example 53n], with 5 nM; and `COc1nc(NC[C@H]2CCC[C@@H](c3ccc(C(F)(F)F)cc3)O2)cc(C(=O)N2CCC(N[C@@H]3CCOC[C@@H]3OC)CC2)n1` [Example 53o], with 1 nM; and `COc1nc(NC[C@H]2CCC[C@@H](c3ccc(C(F)(F)F)cc3)O2)cc(C(=O)N2CCC(N[C@H]3CCOC[C@H]3OC)CC2)n1` [Example 53p], with 0.8 nM.
As for `COc1nc(NC[C@H]2CCC[C@@H](c3ccc(OC(F)(F)F)cc3)O2)cc(C(=O)N2CCC(N[C@@H]3CCOC[C@@H]3OC)CC2)n1` [Example 53q], the Ki is 1 nM.
Under `COc1nc(NC[C@H]2CCC[C@@H](c3ccc(OC(F)(F)F)cc3)O2)cc(C(=O)N2CCC(N[C@H]3CCOC[C@H]3OC)CC2)n1` [Example 53r] stands 0.8 nM; under `CO[C@H]1COCC[C@H]1NC1CCN(C(=O)c2cc(NC[C@H]3CCC[C@@H](c4ccc(C(F)(F)F)cc4)O3)nc(C(F)(F)F)n2)CC1` [Example 53s], 0.2 nM.
With `CO[C@@H]1COCC[C@@H]1NC1CCN(C(=O)c2cc(NC[C@H]3CCC[C@@H](c4ccc(C(F)(F)F)cc4)O3)nc(C(F)(F)F)n2)CC1` [Example 53t], the Ki worked out at 0.4 nM.
Under `Cc1c(NC[C@H]2CCC[C@@H](c3ccc(C(F)(F)F)cc3)O2)ncnc1C(=O)N1CCC(NC2CCOCC2F)CC1` (stereo partly shown) [Example 53u] stands 3 nM; under `Cc1ccc([C@@H]2CCC[C@H](CNc3ncnc(C(=O)N4CCC(NC5CCOCC5F)CC4)c3C)O2)cc1` (stereo partly shown) [Example 53v], 7 nM; under `Cc1c(NC[C@H]2CCC[C@@H](c3ccc(OC(F)(F)F)cc3)O2)ncnc1C(=O)N1CCC(NC2CCOCC2F)CC1` (stereo partly shown) [Example 53w], 0.6 nM.
As to `Cc1ccc([C@@H]2CCC[C@H](CNc3ncnc(C(=O)N4CCC(N5CCC6(CC5)Cc5ccccc5O6)CC4)c3C)O2)cc1` [Example 53x], the Ki was determined as 9 nM.
Then `Cc1c(NC[C@H]2CCC[C@@H](c3ccc(C(F)(F)F)cc3)O2)ncnc1C(=O)N1CCC(N2CCC3(CC2)Cc2ccccc2O3)CC1` [Example 53y], with 16 nM; and `COc1nc(NC[C@H]2CCC[C@@H](c3ccc(C)cc3)O2)c(C)c(C(=O)N2CCC(N[C@@H]3CCOC[C@@H]3OC)CC2)n1` [Example 53z], with 3 nM.
Under `CO[C@H]1COCC[C@H]1N(C)C1CCN(C(=O)c2ncnc(NC[C@H]3CCC[C@@H](c4ccc(C)cc4)O3)c2C)CC1` [Example 54] stands 28 nM.
Under `CO[C@H]1COCC[C@H]1N(C)C1CCN(C(=O)c2ncnc(NC[C@H]3CCC[C@@H](c4ccc(C(F)(F)F)cc4)O3)c2C)CC1` [Example 54a] stands 5 nM; under `Cc1ccc([C@@H]2CCC[C@H](CNc3ncnc(C(=O)N4CCC(N5CCC(c6cccc(C(=O)O)c6)C5)CC4)c3C)O2)cc1` (stereo partly shown) [Example 55], 311 nM; under `Cc1ccc(C2CCC[C@H](CNc3ncnc(C(=O)N4CCC(N5CCC(c6cccc(C(=O)O)c6)CC5)CC4)c3C)O2)cc1` (stereo partly shown) [Example 56], 802 nM.
As to `Cc1ccc(C2CCC[C@H](CNc3ncnc(C(=O)N4CCC(N5CCCC(c6cccc(C(=O)O)c6)C5)CC4)c3C)O2)cc1` (stereo partly shown) [Example 57], the Ki came to 1800 nM.
Then `Cc1ccc(C2CCC[C@H](CNc3ncnc(C(=O)N4CCC(N5CCC(c6ccc(C(=O)O)cc6)C5)CC4)c3C)O2)cc1` (stereo partly shown) [Example 58], with 1130 nM.
Then `Cc1ccc(C2CCC[C@H](CNc3ncnc(C(=O)N4CCC(N5CCC(c6ccccc6C(=O)O)C5)CC4)c3C)O2)cc1` (stereo partly shown) [Example 59], with 263 nM; and `Cc1ccc([C@H]2CCC[C@@H](CNc3ncnc(C(=O)N4CCC(N5CCC6(CC5)CC(C(=O)O)c5ccccc56)CC4)c3C)O2)cc1` (stereo partly shown) [Example 60], with 733 nM.

The term Ki denotes the equilibrium dissociation constant of an inhibitor or competing ligand from its target.
